Ten compounds from patent US8575119B2, “2′-chloroacetylenyl substituted nucleoside derivatives” (Enanta Pharmaceuticals, Inc., priority 2011, dated 2013) can be followed below.

As usually defined, the EC50 is the concentration giving half of the maximal effect.

In one assay the test system is HCV 1a genotype replicon. The experiment in a line: HCV replicon assay, qRT-PCR, genotype 1a (Huh-1a7 replicon cell line). It counts as cell-based, HCV (strain H77. As to conditions: Hepatitis C virus; Genotype-1a replicon, HCV RNA by qRT-PCR normalized to GAPDH RNA. The text has this:
(§1) HCV replicon cell lines (kindly provided by R. Bartenschlager) isolated from colonies as described by Lohman et al. (Lohman et al. (1999) Science 285: 110-113, expressly incorporated by reference in its entirety) and used for all experiments. One of the HCV replicon cell lines (strain Conl, genotype 1b) has the nucleic acid sequence set forth in EMBL Accession No.: AJ242651, the coding sequence of which is from nucleotides 1801 to 8406. Another replicon cell line (strain H77, genotype 1a) was constructed as described by Yi et. al. (Yi et. al. (2004) Journal of Virology 78(15):7904-15). The coding sequences of the published HCV replicons were synthesized and subsequently assembled in plasmids using standard molecular biology techniques.
(§2) One replicon cell line (“SGR 11-7”) stably expresses HCV replicon RNA, genotype 1b, which consists of (i) the HCV 5′UTR fused to the first 12 amino acids of the capsid protein, (ii) the neomycin phosphotransferase gene (neo), (iii) the IRES from encephalomyocarditis virus (EMCV) and (iv) HCV […] to NS5B genes and the HCV 3′UTR. Another replicon cell line (“Huh-1a7”) described by Yi et. al. (Yi et. al. (2004) Journal of Virology 78(15):7904-15, expressly incorporated by reference in its entirety) stably expresses HCV replicon RNA, genotype 1a, which consists of (i) the HCV 5′UTR fused to the first 12 amino acids of the capsid protein, (ii) the HIV tat protein, (iii) the neomycin phosphotransferase gene (neo), (iv) the IRES from encephalomyocarditis virus (EMCV) and (vi) HCV NS3 to NS5B genes that harbor cell culture adaptive mutations (Q1067R, K1691R, S2204I) and the HCV 3′UTR.
(§3) These cell lines are maintained at 37° C., 5% CO2, 100% relative humidity in DMEM (Cat#11965-084, Invitrogen), with 10% fetal calf serum (“FCS”, Invitrogen), 1% non-essential amino acids (Invitrogen), 1% of Glutamax (Invitrogen), 1% of 100× penicillin/streptomycin (Cat#15140-122, Invitrogen) and Geneticin (Cat#10131-027, Invitrogen) at 0.75 mg/ml or 0.25 mg/ml for 11-7 and Huh-1a7 cells, respectively.
(§4) EC50 values of single agent compounds were determined by HCV RNA detection using quantitative RT-PCR, according to the manufacturer's instructions, with a TAQMAN® One-Step RT-PCR Master Mix Reagents Kit (Cat#AB 4309169, Applied Biosystems) on an ABI Model 7500 thermocycler. EC50 values of combinations are similarly determined by HCV RNA detection using quantitative RT-PCR. The TAQMAN primers to use for detecting and quantifying HCV RNA obtained from Integrated DNA Technologies. HCV RNA is normalized to GAPDH RNA levels in drug-treated cells, which is detected and quantified using the Human GAPDH Endogenous Control Mix (Applied Biosystems, AB 4310884E). Total cellular RNA is purified from 96-well plates using the RNAqueous 96 kit (Ambion, Cat#AM1812). Chemical agent cytotoxicity is evaluated using an MTS assay according to the manufacturer's directions (Promega).
(§5) The compounds of the present invention can be effective against the HCV 1a and 1b genotypes. It should also be understood that the compounds of the present invention can inhibit multiple genotypes of HCV. In one embodiment, compounds of the present invention are active against the 1a, 1b, 2a, 2b, 3a, 4a, and 5a genotypes. […] EC50 ranges against HCV 1a or 1b are as follows: A>1 μM; B 0.1-1 μM; C<0.1 μM.
Background: A replicon is a self-replicating genome or part of one, used to study replication in cells.

The next assay deals with HCV 1b genotype replicon. The experiment in a line: HCV replicon assay, qRT-PCR, genotype 1b (SGR 11-7 replicon cell line). It counts as cell-based, HCV (strain Conl. As to conditions: Hepatitis C virus; Genotype-1b replicon, HCV RNA by qRT-PCR normalized to GAPDH RNA.
From the text: as §1, §2, §3, §4, §5

Take `C[C@H](NP(=O)(OC[C@H]1O[C@@H](n2ccc(=O)[nH]c2=O)C(O)(C#CCl)C1O)Oc1cccc2ccccc12)C(=O)OC1CCCCC1` (some centres unmarked) [Example 10]: the concentration giving a half-maximal response (EC50) in the assay on HCV 1a genotype replicon and in the assay with HCV 1b genotype replicon was above 1000 nM in each case.

Turning to `C[C@H](N[P@@](=O)(OC[C@H]1O[C@@H](n2ccc(=O)[nH]c2=O)[C@@](O)(C#CCl)C1O)Oc1cccc2ccccc12)C(=O)OCC(C)(C)C` (some centres unmarked) [Example 3], the EC50 with HCV 1a genotype replicon and with HCV 1b genotype replicon was 100 to 1000 nM each time.

Turning to `COC(=O)[C@H](C)NP(=O)(OC[C@H]1O[C@@H](n2ccc(=O)[nH]c2=O)[C@@](O)(C#CCl)C1O)Oc1cccc2ccccc12` (some centres unmarked) [Example 2], the EC50 with HCV 1a genotype replicon and in the assay with HCV 1b genotype replicon was 100 to 1000 nM each time.

`CC(C)OC(=O)[C@H](C)NP(=O)(OC[C@H]1O[C@@H](n2ccc(=O)[nH]c2=O)[C@@](O)(C#CCl)C1O)Oc1cccc2ccccc12` (some centres unmarked) [Example 8]: the half-maximal effective concentration (EC50) is 100 to 1000 nM with HCV 1a genotype replicon and above 1000 nM in the assay on HCV 1b genotype replicon.

Turning to `CCCCOC(=O)[C@H](C)NP(=O)(OC[C@H]1O[C@@H](n2ccc(=O)[nH]c2=O)[C@@](O)(C#CCl)C1O)Oc1cccc2ccccc12` (some centres unmarked) [Example 5], the EC50 in the assay with HCV 1a genotype replicon and with HCV 1b genotype replicon was 100 to 1000 nM in each case.

`C[C@H](NP(=O)(OC[C@H]1O[C@@H](n2ccc(=O)[nH]c2=O)[C@@](O)(C#CCl)C1O)Oc1cccc2ccccc12)C(=O)OCc1ccccc1` (some centres unmarked) [Example 6]: the EC50 in the assay on HCV 1a genotype replicon and in the assay with HCV 1b genotype replicon was 100 to 1000 nM each time.

For the compound `CCCCCOC(=O)[C@H](C)NP(=O)(OC[C@H]1O[C@@H](n2ccc(=O)[nH]c2=O)[C@@](O)(C#CCl)C1O)Oc1cccc2ccccc12` (some centres unmarked) [Example 7], the EC50 in the assay with HCV 1a genotype replicon and in the assay on HCV 1b genotype replicon was 100 to 1000 nM each time.

`C[C@H](NP(=O)(OC[C@H]1O[C@@H](n2ccc(=O)[nH]c2=O)[C@@](O)(C#CCl)C1O)Oc1cccc2ccccc12)C(=O)OC1CCCC1` (some centres unmarked) [Example 9]: the EC50 with HCV 1a genotype replicon and with HCV 1b genotype replicon was 100 to 1000 nM in each case.

`O=c1ccn([C@@H]2O[C@H](CO)C(O)C2(O)C#CCl)c(=O)[nH]1` (some centres unmarked) [Example 1]: the 50% effective concentration (EC50) in the assay with HCV 1a genotype replicon and in the assay with HCV 1b genotype replicon was above 1000 nM each time.

Take `C[C@H](N[P@](=O)(OC[C@H]1O[C@@H](n2ccc(=O)[nH]c2=O)[C@@](O)(C#CCl)C1O)Oc1cccc2ccccc12)C(=O)OCC(C)(C)C` (some centres unmarked) [Example 4]: the EC50 with HCV 1a genotype replicon and in the assay on HCV 1b genotype replicon was below 100 nM throughout.
